IC50 data for 7 compounds are collected here from patent US20060211670A1, “Antitumoral18a-homoestra-1,3,5(10)-trien-3yl 2-substituted sulfamates” (priority 2003, published 2006).

Experiment [1] relates to HMVEC human primary dermal microvascular endothelial cells. In words: Inhibition of cell proliferation (crystal violet), HMVEC. Format: cell-based. As to conditions: 4 days incubation. The method, then: (§1) Cell cultures of the following cell lines were prepared in 96-well microtiter plates: • 1. MaTu/ADR multidrug-resistant human breast tumor cells (Epo GmbH Berlin), 5000 cells/well. • 2. HCT116 human colon tumor cells (ATCC CCL-247), 3000 cells/well. • 3. NCl-H460 human non-small-cell lung cancer cells (ATCC HTB-177), 3000 cells/well. • 4. DU145 human prostate tumor cells (ATCC HTB-81), 5000 cells/well. • 5. HMVEC human primary dermal microvascular endothelial cells, 7500 cells/well.
(§2) After 24 hours of incubation in a cell culture incubator at 37° C., the cells of a microtiter plate were stained with crystal violet (reference plate), while the cells in the test plates were incubated for 4 days with the test substances in the concentrations […], as well as with the DMSO solvent by itself (solvent control). The cell proliferation was determined by staining cells with crystal violet. The extinction of the crystal violet was determined by photometry at 595 nm. The percentage of the change in the cell number in the test plates was determined after the extinction values were normalized to the reference plate (0%) and to the solvent control (100%). The semi-maximal inhibition of the cell growth (IC50) was determined as the substance concentration, in which 50% of the cell number of the solvent controls were present.

The test system of experiment [2] is NCl-H460 human non-small-cell lung cancer cells. Put plainly: Inhibition of cell proliferation (crystal violet), NCl-H460. Format: cell-based. Particulars: NCl-H460, 4 days incubation. On the procedure:
as §1, §2

Experiment [3] relates to DU145 human prostate tumor cells. Put plainly: Inhibition of cell proliferation (crystal violet), DU145. As to conditions: DU145, 4 days incubation. Format: cell-based. The method, then:
as §1, §2

Experiment [4] concerns HCT116 human colon tumor cells. In words: Inhibition of cell proliferation (crystal violet), HCT116. Format: cell-based. Particulars: HCT116, 4 days incubation. The method, then:
as §1, §2

Experiment [5] relates to MaTu/ADR multidrug-resistant human breast tumor cells. Put plainly: Inhibition of cell proliferation (crystal violet), MaTu/ADR. Format: cell-based. Particulars: 4 days incubation. On the procedure: as §1, §2
The target in experiment [6] is T1, microtubular protein (tubulin) from pig brains (Sus scrofa, UniProt P02550+P02554).
T1 construct: microtubular protein was purified from pig brains via cydic assembling/disassembling; from tissue; host or cells: pig brain
T1 sequence (P02550 whole entry): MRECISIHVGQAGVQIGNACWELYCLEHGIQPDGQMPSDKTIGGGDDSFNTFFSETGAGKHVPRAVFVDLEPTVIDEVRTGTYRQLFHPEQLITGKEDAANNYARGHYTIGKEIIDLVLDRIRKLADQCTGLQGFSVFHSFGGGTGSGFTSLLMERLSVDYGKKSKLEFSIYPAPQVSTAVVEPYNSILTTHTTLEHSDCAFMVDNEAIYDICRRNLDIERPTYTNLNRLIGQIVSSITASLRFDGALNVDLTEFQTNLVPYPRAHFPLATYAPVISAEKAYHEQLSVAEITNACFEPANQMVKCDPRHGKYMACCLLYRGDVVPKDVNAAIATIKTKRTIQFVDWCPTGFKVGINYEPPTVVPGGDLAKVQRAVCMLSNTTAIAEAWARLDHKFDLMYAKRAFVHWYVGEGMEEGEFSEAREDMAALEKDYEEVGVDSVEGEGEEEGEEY
T1 sequence (P02554 whole entry): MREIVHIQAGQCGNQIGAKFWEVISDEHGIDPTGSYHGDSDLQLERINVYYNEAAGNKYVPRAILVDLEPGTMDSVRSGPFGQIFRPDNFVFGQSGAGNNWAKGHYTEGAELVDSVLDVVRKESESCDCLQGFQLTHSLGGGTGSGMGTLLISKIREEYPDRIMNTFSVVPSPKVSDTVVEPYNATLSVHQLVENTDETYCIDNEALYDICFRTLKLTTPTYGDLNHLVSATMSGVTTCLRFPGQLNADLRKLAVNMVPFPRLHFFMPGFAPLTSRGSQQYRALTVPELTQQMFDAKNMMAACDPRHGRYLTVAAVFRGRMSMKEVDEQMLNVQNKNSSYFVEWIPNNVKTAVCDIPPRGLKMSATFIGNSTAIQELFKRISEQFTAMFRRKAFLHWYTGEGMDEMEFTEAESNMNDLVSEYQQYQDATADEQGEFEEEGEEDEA
Put plainly: Inhibition of tubulin polymerization (turbidimetry at 340 nm). Format: biochemical. Particulars: pig brain microtubular protein 1 mg/ml, 0.25 mmol GTP, 37° C.
Experimental: The in-vitro testing of the tubulin polymerization influence was performed as follows:
The buffer system used had the following composition: 20 mmol of PIPES (1,4-piperazine-diethane-sulfonic acid, pKa 6.8), 80 mmol of NaCl, 0.5 mmol of MgCl2, 1 mmol of EGTA (ethylene glycol-bis-(2-aminoethylene)-tetraacetic acid).
For active ingredient testing, protein concentrations of 1 mg/ml (about 10^−5 mmol of tubulin) were used. The determination of protein was carried out according to the Lowry Method (Lowry et al. J. Biol. Chem. 1951, 193, 265-75) with bovine serum albumin as a standard. The assembling of microtubuli was carried out in the presence of 0.25 mmol of GTP and heating the samples to 37° C.
The microtubulus formation was examined by means of turbidimetry at a wavelength of 340 nm.
Testing of the active ingredients was carried out by their addition at the beginning of the assembling or in the state of equilibrium. Deviations of turbidity curves from the control characterize its activity. To monitor action and to evaluate the measured turbidity values, a transmission electron microscopic study (CEM 902 A, Zeiss/Oberkochen) of the assemblates was always performed after negative staining with 1% aqueous uranyl acetate.

Structures are written as SMILES. A value given as a limit tells only on which side of the number the result lay.

In the case of `CC(=O)O[C@H]1C(=O)[C@@]2(C)[C@H]([C@H](OC(=O)c3ccccc3)[C@]3(O)C[C@H](OC(=O)[C@H](O)[C@@H](NC(=O)c4ccccc4)c4ccccc4)C(C)=C1C3(C)C)[C@]1(OC(C)=O)CO[C@@H]1C[C@@H]2O` [Taxol, reference compound], the IC50 in experiment [1] (Homo sapiens, 96 h) was 4 nM; in experiment [2] (Homo sapiens, 96 h) it was 4 nM; in experiment [3] (Homo sapiens, DU-145, 96 h), 4 nM; in experiment [4] (Homo sapiens, HCT-116, 96 h), 4 nM; in experiment [5] (Homo sapiens, 96 h), 400 nM.
`CC[C@]12CC[C@@H]3c4cc(OC)c(OS(N)(=O)=O)cc4CC[C@H]3[C@@H]1CC[C@@H]2OC` [(5), 2,17β-Dimethoxy-18a-homoestra-1,3,5(10)-trien-3-yl Sulfamate]: the IC50 in experiment [1] is < 100 nM; in experiment [2] it was 130 nM; in experiment [3], 190 nM; in experiment [4], < 100 nM; in experiment [5], < 100 nM.
Regarding `CC[C@@]12CCC[C@H]1[C@@H]1CCc3cc(OS(N)(=O)=O)c(OC)cc3[C@H]1CC2` [(4), 2-Methoxy-18a-homoestra-1,3,5(10)-trien-3-yl sulfamate], the IC50 came to 600 nM in experiment [1] (Homo sapiens, 96 h); 500 nM in experiment [2] (Homo sapiens, 96 h); 600 nM in experiment [3] (Homo sapiens, DU-145, 96 h); 600 nM in experiment [4] (Homo sapiens, HCT-116, 96 h); 1800 nM in experiment [6]; 450 nM in experiment [5] (Homo sapiens, 96 h).
Consider `CCc1cc2c(cc1OS(N)(=O)=O)CC[C@@H]1[C@@H]2CC[C@]2(CC)[C@@H](OS(N)(=O)=O)CC[C@@H]12` [(6), 2-Ethyl-18a-homoestra-1,3,5(10)-triene-3,17β-diyl Sulfamate], for which the IC50 in experiment [1] is < 100 nM; in experiment [2], 180 nM; in experiment [3], 180 nM; in experiment [4], 180 nM; in experiment [5], 100 nM.
On to `CC[C@]12CC[C@@H]3c4cc(OC)c(OS(N)(=O)=O)cc4CC[C@H]3[C@@H]1CC[C@@H]2O` [(1), 17β-Hydroxy-2-methoxy-18a-homoestra-1,3,5(10)-trien-3-yl sulfamate], for which the IC50 is < 100 nM in experiment [1] (Homo sapiens, 96 h); < 100 nM in experiment [2] (Homo sapiens, 96 h); 150 nM in experiment [3] (Homo sapiens, DU-145, 96 h); < 100 nM in experiment [4] (Homo sapiens, HCT-116, 96 h); 500 nM in experiment [6]; < 100 nM in experiment [5] (Homo sapiens, 96 h).
Consider `COc1cc2c(cc1O)CC[C@@H]1[C@@H]2CC[C@]2(C)[C@@H](O)CC[C@@H]12` [2-Methoxyestradiol, reference compound], for which the concentration for half-maximal inhibition (IC50) in experiment [1] came to 2200 nM; in experiment [2] it was 1800 nM; in experiment [3], 1900 nM; in experiment [4], 1100 nM; in experiment [6], 2700 nM; in experiment [5], 200 nM.
Regarding `CCOc1cc2c(cc1OS(N)(=O)=O)CC[C@@H]1[C@@H]2CC[C@]2(CC)[C@@H](O)CC[C@@H]12` [(2), 2-Ethoxy-17β-hydroxy-18a-homoestra-1,3,5(10)trien-3-yl sulfamate], the half-inhibitory concentration (IC50) in experiment [1] stood at 500 nM; in experiment [2] it was 300 nM; in experiment [3] it was 900 nM; in experiment [4] it was 400 nM; in experiment [5] it was 100 nM.

The IC50 is the concentration at which inhibition is half-maximal. Read a high IC50 as weaker potency in that assay.
